# Measured values reported in patent publication US10208019B2, “GLP-1 receptor agonists and uses thereof” (Pfizer Inc., priority 2016, dated 2019).
# Like-named read-outs stand apart in the source and are kept apart here.
# Key:
# [1] = target: human GLP-1R (Homo sapiens, UniProt P43220, G168S); experiment: CHO GLP-1R Clone H6—Assay 1: HTRF cAMP cell-based functional agonist assay (high GLP-1R density); details: for EC50: CHO GLP-1R Clone H6, cAMP HTRF, geometric mean; for Assay 1 Emax (%): CHO GLP-1R Clone H6
# Sequence of human GLP-1R (Homo sapiens, UniProt P43220, G168S) (P43220 24-463 G168S limits assumed): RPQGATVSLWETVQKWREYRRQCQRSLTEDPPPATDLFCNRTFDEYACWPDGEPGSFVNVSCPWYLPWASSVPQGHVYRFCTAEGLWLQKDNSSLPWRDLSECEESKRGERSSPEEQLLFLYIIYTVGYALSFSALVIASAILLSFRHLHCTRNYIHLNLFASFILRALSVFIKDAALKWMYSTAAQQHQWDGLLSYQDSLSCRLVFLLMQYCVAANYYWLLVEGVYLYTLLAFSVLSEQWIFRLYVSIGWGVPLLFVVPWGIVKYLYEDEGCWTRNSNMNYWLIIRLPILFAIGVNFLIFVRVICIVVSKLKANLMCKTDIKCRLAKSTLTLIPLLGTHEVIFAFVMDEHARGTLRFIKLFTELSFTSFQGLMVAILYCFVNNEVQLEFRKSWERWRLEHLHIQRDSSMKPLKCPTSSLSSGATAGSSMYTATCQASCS
# [2] = target: human GLP-1R (Homo sapiens (Human), UniProt P43220, L260F); experiment: CHO GLP-1R Clone C6—Assay 2: HTRF cAMP cell-based functional agonist assay (low GLP-1R density); details: for EC50: CHO GLP-1R Clone C6, cAMP HTRF, geometric mean; for Emax: read-out: Assay 2 Emax (%)
# Sequence of human GLP-1R (Homo sapiens (Human), UniProt P43220, L260F) (P43220 24-463 L260F): as the sequence (P43220 24-463 G168S limits assumed) above, with S145G, L237F counted along it
# [3] = read-out: Assay 1 Emax (%), CHO GLP-1R Clone H6, relative to saturating concentration of full agonist GLP-1 (1 μM), arithmetic mean
# [4] = CHO GLP-1R Clone C6, relative to saturating concentration of full agonist GLP-1 (1 μM), arithmetic mean
# [5] = relative to saturating concentration of full agonist GLP-1 (1 μM), arithmetic mean
Compound,EC50 ([1]; read-out: Assay 1 EC50),"Emax [1, 3]",EC50 [2],"Emax [2, 4]","Assay 1 Emax (%) [1, 5]",EC50 ([1]; Assay 1 EC50 (nM)),"Assay 2 Emax (%) [2, 4]",Emax ([1]; read-out: Assay 1 Emax (%)),Emax [2]
"COCCn1c(CN2CCN(c3ccc(F)c(OCc4ccc(Cl)cc4F)n3)C[C@@H]2C)nc2ccc(C(=O)O)cc21 [Example 1A-07, 2-{[(2S)-4-{6-[(4-chloro-2-fluorobenzyl)oxy]-5-fluoropyridin-2-yl}-2-methylpiperazin-1-yl]methyl}-1-(2-methoxyethyl)-1H-benzimidazole-6-carboxylic acid]",3.9 nM,82%,45 nM,82%,–,–,–,–,–
"COCCn1c(CN2CCC(c3ccc(F)c(OCc4ccc(Cl)cc4F)n3)CC2)nc2ccc(C(=O)O)cc21 [Example 1A-04, 2-[(4-{6-[(4-chloro-2-fluorobenzyl)oxy]-5-fluoropyridin-2-yl}piperidin-1-yl)methyl]-1-(2-methoxyethyl)-1H-benzimidazole-6-carboxylic acid]",21 nM,79%,350 nM,82%,–,–,–,–,–
"Cn1cnnc1Cn1c(CN2CCC(c3cccc(OCc4ccc(C#N)cc4F)n3)CC2)nc2ccc(C(=O)O)cc21 [Example 1A-20, 2-[(4-{6-[(4-cyano-2-fluorobenzyl)oxy]pyridin-2-yl}piperidin-1-yl)methyl]-1-[(4-methyl-4H-1,2,4-triazol-3-yl)methyl]-1H-benzimidazole-6-carboxylic acid]",44 nM,81%,880 nM,90%,–,–,–,–,–
"N#Cc1ccc(COc2cccc(C3CCN(Cc4nc5ccc(C(=O)O)cc5n4C[C@@H]4CCO4)CC3)n2)c(F)c1 [Example 4A-01, 2-[(4-{6-[(4-cyano-2-fluorobenzyl)oxy]pyridin-2-yl}piperidin-1-yl)methyl]-1-[(2S)-oxetan-2-ylmethyl]-1H-benzimidazole-6-carboxylic acid]",–,–,–,–,–,–,–,79%,100%
"COCCn1c(CN2CCC(c3cccc(OCc4ccc(C#N)cc4)n3)CC2)nc2ccc(C(=O)O)c(F)c21 [Example 2A-15, 2-[(4-{6-[(4-cyanobenzyl)oxy]pyridin-2-yl}piperidin-1-yl)methyl]-7-fluoro-1-(2-methoxyethyl)-1H-benzimidazole-6-carboxylic acid]",22 nM,87%,280 nM,91%,–,–,–,–,–
"O=C(O)c1ccc2nc(CN3CCC(c4cccc(OCc5ccc(Cl)cc5F)n4)CC3)n(Cc3ncco3)c2n1 [Example 2A-18, 2-[(4-{6-[(4-chloro-2-fluorobenzyl)oxy]pyridin-2-yl}piperidin-1-yl)methyl]-3-(1,3-oxazol-2-ylmethyl)-3H-imidazo[4,5-b]pyridine-5-carboxylic acid]",6 nM,80%,78 nM,88%,–,–,–,–,–
"[2H]C([2H])(Oc1cccc(C2CCN(Cc3nc4ccc(C(=O)O)cc4n3C[C@@H]3CCO3)CC2)n1)c1ccc(C#N)cc1F [Example 1A-09, 2-{[4-(6-{[(4-cyano-2-fluorophenyl)(methyl-d2)]oxy}pyridin-2-yl)piperidin-1-yl]methyl}-1-[(2S)-oxetan-2-ylmethyl]-1H-benzimidazole-6-carboxylic acid]",–,92%,–,120%,–,–,–,–,–
"C[C@H]1CN(c2cccc(OCc3ccc(C#N)cc3)n2)CCN1Cc1nc2ccc(C(=O)O)cc2n1CC1CCCO1 (single isomer, unassigned; diastereomer 1) [Example 14A-07]",1.9 nM,–,55 nM,–,63%,–,–,–,–
"C[C@H]1CN(c2cccc(OCc3ccc(Cl)cc3F)n2)CCN1Cc1nc2ccc(C(=O)O)cc2n1Cc1ncco1 [Example 10A-18, 2-{[(2S)-4-{6-[(4-chloro-2-fluorobenzyl)oxy]pyridin-2-yl}-2-methylpiperazin-1-yl]methyl}-1-(1,3-oxazol-2-ylmethyl)-1H-benzimidazole-6-carboxylic acid]",1.6 nM,78%,33 nM,78%,–,–,–,–,–
"COCCn1c(CN2CC[C@@H](c3cccc(OCc4ccc(Cl)cc4F)n3)[C@@H](C)C2)nc2ccc(C(=O)O)cc21 (racemic) [Example 1A-25, rac-2-{[(3R,4R)-4-{6-[(4-chloro-2-fluorobenzyl)oxy]pyridin-2-yl}-3-methylpiperidin-1-yl]methyl}-1-(2-methoxyethyl)-1H-benzimidazole-6-carboxylic acid]",–,65%,1000 nM,84%,–,45 nM,–,–,–
"C[C@H]1CN(c2cccc(OCc3ccc(Cl)cc3F)n2)CCN1Cc1nc2ccc(C(=O)O)cc2n1C[C@@H]1CCO1 [Example 1A-19, 2-{[(2S)-4-{6-[(4-chloro-2-fluorobenzyl)oxy]pyridin-2-yl}-2-methylpiperazin-1-yl]methyl}-1-[(2S)-oxetan-2-ylmethyl]-1H-benzimidazole-6-carboxylic acid]",0.28 nM,84%,3.2 nM,84%,–,–,–,–,–
"COCCn1c(CN2CCN(c3nc(OCc4ccc(Cl)cc4F)ccc3F)CC2)nc2ccc(C(=O)O)cc21 [Example 1A-05, 2-[(4-{6-[(4-chloro-2-fluorobenzyl)oxy]-3-fluoropyridin-2-yl}piperazin-1-yl)methyl]-1-(2-methoxyethyl)-1H-benzimidazole-6-carboxylic acid]",–,75%,–,67%,–,–,–,–,–
"O=C(O)c1ccc2nc(CN3CCC(c4cccc(OCc5ccc(Cl)cc5F)n4)CC3)n(C[C@@H]3CCO3)c2n1 [Example 2A-23, 2-[(4-{6-[(4-chloro-2-fluorobenzyl)oxy]pyridin-2-yl}piperidin-1-yl)methyl]-3-[(2S)-oxetan-2-ylmethyl]-3H-imidazo[4,5-b]pyridine-5-carboxylic acid]",0.5 nM,73%,22 nM,96%,–,–,–,–,–
"COCCn1c(CN2CC[C@@H](c3cccc(OCc4ccc(Cl)cc4F)n3)[C@H](F)C2)nc2ccc(C(=O)O)cc21 (racemic) [Example 1A-22, rac 2-{[(3S,4S)-4-{6-[(4-chloro-2-fluorobenzyl)oxy]pyridin-2-yl}-3-fluoropiperidin-1-yl]methyl}-1-(2-methoxyethyl)-1H-benzimidazole-6-carboxylic acid]",36 nM,–,400 nM,–,78%,–,86%,–,–

# Now from value to molecule, other results behind:
EC50 ([1]; read-out: Assay 1 EC50),"Emax [1, 3]",EC50 [2],"Emax [2, 4]","Assay 1 Emax (%) [1, 5]",EC50 ([1]; Assay 1 EC50 (nM)),"Assay 2 Emax (%) [2, 4]",Compound,Emax ([1]; read-out: Assay 1 Emax (%)),Emax [2]
9.4 nM,69%,160 nM,71%,–,–,–,C[C@H]1CN(c2ccc(F)c(OCc3ccc(F)cc3F)n2)CCN1Cc1nc2ccc(C(=O)O)cc2n1C[C@H]1CCO1 [Example 10A-57],–,–
31 nM,81%,460 nM,66%,–,–,–,O=C(O)c1ccc2nc(CN3CCC(c4cccc(OCc5ccc(Cl)cc5F)n4)CC3)n([C@@H]3CCOC3)c2c1 [Example 10A-60],–,–
8.1 nM,64%,230 nM,77%,–,–,–,"CC1(Cn2c(CN3CCC(c4cccc(OCc5ccc(Cl)cc5F)n4)CC3)nc3ccc(C(=O)O)cc32)CCOC1 (stereo not shown) [Example 11A-14, 2-[(4-{6-[(4-chloro-2-fluorobenzyl)oxy]pyridin-2-yl}piperidin-1-yl)methyl]-1-[(3-methyltetrahydrofuran-3-yl)methyl]-1H-benzimidazole-6-carboxylic acid]",–,–
5 nM,82%,41 nM,77%,–,–,–,"Cn1nncc1Cn1c(CN2CCC(c3cccc(OCc4ccc(Cl)cc4F)n3)CC2)nc2ccc(C(=O)O)cc21 [Example 11A-72, 2-[(4-{6-[(4-chloro-2-fluorobenzyl)oxy]pyridin-2-yl}piperidin-1-yl)methyl]-1-[(1-methyl-1H-1,2,3-triazol-5-yl]methyl]-1H-benzimidazole-6-carboxylic acid]",–,–
5.7 nM,67%,100 nM,79%,–,–,–,C[C@H]1CN(c2cccc(OCc3ccc(Cl)cc3F)n2)CCN1Cc1nc2ccc(C(=O)O)cc2n1Cc1cnnn1C [Example 10A-22],–,–
0.7 nM,86%,10 nM,89%,–,–,–,"Cn1cncc1Cn1c(CN2CCC(c3cccc(OCc4ccc(Cl)cc4F)n3)CC2)nc2ccc(C(=O)O)cc21 [Example 11A-70, 2-[(4-{6-[(4-chloro-2-fluorobenzyl)oxy]pyridin-2-yl}piperidin-1-yl)methyl]-1-[(1-methyl-1H-imidazol-5-yl)methyl]-1H-benzimidazole-6-carboxylic acid]",–,–
21 nM,–,540 nM,–,79%,–,80%,COCCn1c(CN2CCN(c3cccc(OCc4ccc(Cl)cc4F)n3)C[C@@H]2CO)nc2ccc(C(=O)O)cc21 [Example 12A-09],–,–
63 nM,78%,2000 nM,82%,–,–,–,"O=C(O)c1ccc2nc(CN3CCC(c4cccc(OCc5ccc(Cl)cc5F)n4)CC3)n(C[C@H]3CCCO3)c2c1 [Example 11A-68, 2-[(4-{6-[(4-chloro-2-fluorobenzyl)oxy]pyridin-2-yl}piperidin-1-yl)methyl]-1-[(2R)-tetrahydrofuran-2-ylmethyl]-1H-benzimidazole-6-carboxylic acid]",–,–
12 nM,75%,140 nM,82%,–,–,–,"O=C(O)c1ccc2nc(CN3CCC(c4cccc(OCc5ccc(Cl)cc5F)n4)CC3)n(Cc3cocn3)c2c1 [Example 10A-41, 2-[(4-{6-[(4-chloro-2-fluorobenzyl)oxy]pyridin-2-yl}piperidin-1-yl)methyl]-1-(1,3-oxazol-4-ylmethyl)-1H-benzimidazole-6-carboxylic acid]",–,–
